Experimental data as given in patent US7081460B2, “Quinazoline and quinazoline-like compounds for the treatment of integrin-mediated disorders” (Ortho-McNeil Pharmaceutical, Inc., priority 2001, dated 2006).
Structures can show the parent of a compound that is named as a salt.

What was measured:
[1] = molecular target: T1, Human αvβ3 (Homo sapiens, UniProt P05106+P06756); test: In vitro solid phase purified αvβ3 binding assay (vitronectin/αvβ3); settings: isolated human αvβ3, 5 nM vitronectin; read-out: αvβ3 Binding IC50
T1 construct: purchased Chemicon International Inc., Temecula, Calif
How it was run: (§1)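 αvβ3 (1 μg/ml) immobilised in Tris buffer with Ca2+/Mg2+/Mn2+, compounds added 5 min before 5 nM vitronectin, 3 h at 37 °C; bound vitronectin detected by anti-vitronectin antibody/peroxidase ELISA at 490 nm. GPIIb/IIIa coated overnight at 4 °C, biotinylated fibrinogen with compounds 2–4 h RT in modified Tyrodes buffer, avidin-HRP/o-phenylenediamine read at 490 nm.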

[2] = molecular target: GPIIb/IIIa (Homo sapiens, UniProt P05106+P08514); test: In vitro solid phase purified glycoprotein IIb/IIIa binding assay (biotinylated fibrinogen); settings: RGD-affinity purified GPIIb/IIIa, biotinylated fibrinogen; read-out: GPIIb/IIIa Binding IC50
How it was run: as §1

Chain of GPIIb/IIIa (P08514 32-887 limits assumed): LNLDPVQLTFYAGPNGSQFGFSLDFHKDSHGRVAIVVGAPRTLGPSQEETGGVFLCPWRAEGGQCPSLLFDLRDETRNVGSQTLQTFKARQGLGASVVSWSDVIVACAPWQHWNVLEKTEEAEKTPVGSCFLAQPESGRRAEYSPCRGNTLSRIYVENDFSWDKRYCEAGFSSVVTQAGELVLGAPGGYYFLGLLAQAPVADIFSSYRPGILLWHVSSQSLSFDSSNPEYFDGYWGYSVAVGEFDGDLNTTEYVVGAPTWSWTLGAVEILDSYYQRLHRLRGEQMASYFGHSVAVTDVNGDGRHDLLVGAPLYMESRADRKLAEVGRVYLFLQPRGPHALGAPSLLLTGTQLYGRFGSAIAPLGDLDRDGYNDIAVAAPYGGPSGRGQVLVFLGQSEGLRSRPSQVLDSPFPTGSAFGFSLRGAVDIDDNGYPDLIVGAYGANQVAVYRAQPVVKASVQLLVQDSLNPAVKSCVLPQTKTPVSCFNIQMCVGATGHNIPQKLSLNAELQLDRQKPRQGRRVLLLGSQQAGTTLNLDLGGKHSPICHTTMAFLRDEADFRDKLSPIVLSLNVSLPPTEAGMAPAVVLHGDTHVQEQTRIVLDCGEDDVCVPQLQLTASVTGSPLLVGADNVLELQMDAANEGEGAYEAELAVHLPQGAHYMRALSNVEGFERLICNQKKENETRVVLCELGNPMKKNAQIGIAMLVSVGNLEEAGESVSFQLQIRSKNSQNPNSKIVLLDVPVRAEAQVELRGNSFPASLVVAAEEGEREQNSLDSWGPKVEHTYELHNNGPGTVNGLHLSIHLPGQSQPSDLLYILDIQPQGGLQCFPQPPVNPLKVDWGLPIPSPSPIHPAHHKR
Chain of GPIIb/IIIa (P08514 891-1039 partner limits assumed): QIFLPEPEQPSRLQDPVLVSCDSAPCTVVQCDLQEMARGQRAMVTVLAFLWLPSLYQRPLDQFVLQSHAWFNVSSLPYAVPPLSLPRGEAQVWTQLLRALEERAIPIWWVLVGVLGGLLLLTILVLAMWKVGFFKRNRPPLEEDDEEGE
Chain of GPIIb/IIIa (P05106 27-788): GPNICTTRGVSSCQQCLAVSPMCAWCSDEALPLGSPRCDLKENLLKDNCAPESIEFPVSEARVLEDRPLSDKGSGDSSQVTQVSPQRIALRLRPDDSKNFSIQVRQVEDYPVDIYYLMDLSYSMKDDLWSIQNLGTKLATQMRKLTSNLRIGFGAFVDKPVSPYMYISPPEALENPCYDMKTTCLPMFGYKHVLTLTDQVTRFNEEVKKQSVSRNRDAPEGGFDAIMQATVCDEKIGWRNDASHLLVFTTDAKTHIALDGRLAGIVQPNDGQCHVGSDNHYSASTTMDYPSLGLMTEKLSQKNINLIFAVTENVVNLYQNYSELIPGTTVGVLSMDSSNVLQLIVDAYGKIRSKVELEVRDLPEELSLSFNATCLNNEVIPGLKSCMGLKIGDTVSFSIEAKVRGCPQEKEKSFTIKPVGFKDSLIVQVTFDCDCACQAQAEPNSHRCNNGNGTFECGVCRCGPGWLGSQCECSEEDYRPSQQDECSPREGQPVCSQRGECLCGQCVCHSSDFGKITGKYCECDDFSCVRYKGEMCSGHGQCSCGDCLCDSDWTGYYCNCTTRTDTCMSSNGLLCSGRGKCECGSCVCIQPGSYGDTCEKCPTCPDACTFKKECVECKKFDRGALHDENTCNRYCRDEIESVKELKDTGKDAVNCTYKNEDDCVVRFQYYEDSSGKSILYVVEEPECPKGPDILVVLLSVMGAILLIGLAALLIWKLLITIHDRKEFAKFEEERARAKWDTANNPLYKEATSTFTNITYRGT
T1 sequence (P06756 31-889 limits assumed): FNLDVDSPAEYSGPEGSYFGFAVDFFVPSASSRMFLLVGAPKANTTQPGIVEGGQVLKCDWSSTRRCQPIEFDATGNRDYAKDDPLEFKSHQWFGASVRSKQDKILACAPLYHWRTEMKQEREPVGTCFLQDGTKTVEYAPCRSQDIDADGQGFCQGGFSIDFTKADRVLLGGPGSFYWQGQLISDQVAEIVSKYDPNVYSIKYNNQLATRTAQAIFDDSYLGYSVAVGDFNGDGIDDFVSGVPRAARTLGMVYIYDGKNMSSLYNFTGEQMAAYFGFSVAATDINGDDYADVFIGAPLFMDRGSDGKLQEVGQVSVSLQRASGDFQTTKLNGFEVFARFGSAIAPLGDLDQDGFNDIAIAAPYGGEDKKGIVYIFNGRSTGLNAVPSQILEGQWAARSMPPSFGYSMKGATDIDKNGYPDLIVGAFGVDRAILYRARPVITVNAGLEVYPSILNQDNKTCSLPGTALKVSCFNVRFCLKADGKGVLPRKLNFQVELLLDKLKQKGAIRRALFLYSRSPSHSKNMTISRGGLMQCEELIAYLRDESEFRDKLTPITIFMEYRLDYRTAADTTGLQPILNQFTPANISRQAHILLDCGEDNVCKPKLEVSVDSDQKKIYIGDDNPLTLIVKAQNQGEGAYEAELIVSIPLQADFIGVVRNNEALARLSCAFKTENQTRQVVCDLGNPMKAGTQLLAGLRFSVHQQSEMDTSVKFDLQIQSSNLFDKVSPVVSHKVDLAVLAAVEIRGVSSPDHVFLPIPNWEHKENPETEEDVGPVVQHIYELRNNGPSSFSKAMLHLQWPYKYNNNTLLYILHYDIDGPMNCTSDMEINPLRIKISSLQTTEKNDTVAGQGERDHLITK
T1 sequence (P06756 891-1048 partner limits assumed): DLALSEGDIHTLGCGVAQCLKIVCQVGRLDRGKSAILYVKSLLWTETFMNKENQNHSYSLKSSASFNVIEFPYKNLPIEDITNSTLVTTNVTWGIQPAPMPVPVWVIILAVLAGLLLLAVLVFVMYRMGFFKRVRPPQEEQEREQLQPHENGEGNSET
T1 sequence (P05106 27-788): as the sequence (P05106 27-788) above

## Cc1c(C)c(C)c(S(=O)(=O)N[C@@H](Cc2nc3ccc(/C=C/CNC4=NCCN4)cc3c(=O)[nH]2)C(=O)O)c(C)c1C (as salt: TFA) [Compound 1, 6-[(1E)-3-[(4,5-dihydro-1H-imidazol-2-yl)amino]-1-propenyl]-(αS)-3,4-dihydro-4-oxo-α-[[(2,3,4,5,6-pentamethylphenyl)sulfonyl]amino]-2-quinazolinepropanoic Acid]
other
  melting point: 131 to 135 °C

## Cc1c(C)c(C)c(S(=O)(=O)N[C@@H](Cc2nc3ccc(/C=C/CNc4ccccn4)cc3c(=O)[nH]2)C(=O)O)c(C)c1C (as salt: TFA) [Compound 10, (αS)-3,4-dihydro-4-oxo-α-[[(2,3,4,5,6-pentamethylphenyl)sulfonyl]amino]-6-[(1E)-3-(2-pyridinylamino)-1-propenyl]-2-quinazolinepropanoic Acid]
other
  melting point: 148 to 151 °C

## 6-[(1E)-3-[(4,5-dihydro-1H-imidazol-2-yl)amino]-1-propenyl]-(αS)-3,4-dihydro-4-oxo-α-[[[(E)-2-phenylethenyl]sulfonyl]amino]-2-quinazolinepropanoic Acid [Compound 7]
[1]
  IC50: 7 nM
[2]
  IC50: 330 nM

## COc1ccc(S(=O)(=O)N[C@@H](Cc2nc3ccc(/C=C/CNC4=NCCN4)cc3c(=O)[nH]2)C(=O)O)cc1OC [Compound 48, 6-[(1E)-3-[(4,5-dihydro-1H-imidazol-2-yl)amino]-1-propenyl]-α-[[(3,4-dimethoxyphenyl)sulfonyl]amino]-(αS)-3,4-dihydro-4-oxo-2-quinazolinepropanoic acid]
[1]
  IC50: 11 nM
[2]
  IC50: 64 nM

## O=C(Nc1ccccc1)N[C@@H](Cc1nc2ccc(/C=C/CNc3ccccn3)cc2c(=O)[nH]1)C(=O)O [Compound 12, (αS)-3,4-dihydro-4-oxo-α-[[(phenylamino)carbonyl]amino]-6-[(E)-3-(2-pyridinylamino)-1-propenyl]-2-quinazolinepropanoic Acid]
[1]
  IC50: > 500 nM
[2]
  IC50: 18000 nM

## Cc1cc(C)c(S(=O)(=O)N[C@@H](Cc2nc3ccc(/C=C/CNC(=O)NCc4ccccc4)cc3c(=O)[nH]2)C(=O)O)c(C)c1 [Compound 62, (αS)-3,4-dihydro-4-oxo-6-[(1E)-3-[[[(phenylmethyl)amino]carbonyl]amino]-1-propenyl]-α-[[(2,4,6-trimethylphenyl)sulfonyl]amino]-2-quinazolinepropanoic acid]
[1]
  IC50: 79 nM
[2]
  IC50: 4100 nM

## Cc1c(C)c(C)c(S(=O)(=O)N[C@@H](Cc2nc3ccc(CCCNc4ccccn4)cc3c(=O)[nH]2)C(=O)O)c(C)c1C (as salt: HCl) [Compound 11, (αS)-3,4-dihydro-4-oxo-α-[[(2,3,4,5,6-pentamethylphenyl)sulfonyl]amino]-6-[3-(2-pyridinylamino)propyl]-2-quinazolinepropanoic Acid]
other
  melting point: 218 to 221 °C
